# Reference: patent US9409884B2 (Rigel Pharmaceuticals, Inc., priority 2012, dated 2016)
# Biological target: AMPK
# Test: AMPK activation, enzyme-linked immunosorbent assay
# Assay type: biochemical
# Description: Compounds of Table 1 were assayed for their ability to activate AMPK using an enzyme-linked immunosorbent assay.
# Compounds of Table 2 were assayed for their ability to activate AMPK using an enzyme-linked immunosorbent assay.
# Compounds of Table 3 were assayed for their ability to activate AMPK using an enzyme-linked immunosorbent assay.
# Compounds of Table 4 were assayed for their ability to activate AMPK using an enzyme-linked immunosorbent assay.
# Compounds of Table 5 were assayed for their ability to activate AMPK using an enzyme-linked immunosorbent assay.
# Compounds of Table 6 were assayed for their ability to activate AMPK using an enzyme-linked immunosorbent assay.
# Compounds of Table 7 were assayed for their ability to activate AMPK using an enzyme-linked immunosorbent assay.
SMILES,"EC50 (Table 14, compounds of Table 7)","EC50 (Table 8, compounds of Table 1)"
"N#Cc1ccc(CN2CC[C@@H](NC(=O)c3ccc(C(=O)N4CCC(Oc5ccc(S(=O)(=O)C(F)(F)F)cc5)CC4)nc3)[C@H](F)C2)cc1 (relative stereo) [Compound 7-119, N-((trans)-1-(4-cyanobenzyl)-3-fluoropiperidin-4-yl)-6-(4-(4-(trifluoromethylsulfonyl)phenoxy)piperidine-1-carbonyl)nicotinamide]",< 1000 nM,
"COc1ccc(C(=O)C2CCN(C(=O)c3ccc(C(=O)N[C@H]4CCN(Cc5ccc(OC(F)(F)F)cc5)C[C@H]4F)cn3)CC2)cc1 (relative stereo) [Compound 7-123, N-((cis)-3-fluoro-1-(4-(trifluoromethoxy)benzyl)piperidin-4-yl)-6-(4-(4-methoxybenzoyl)piperidine-1-carbonyl)nicotinamide]",< 1000 nM,
"COc1ccc(C(=O)C2CCN(C(=O)c3ccc(C(=O)N[C@@H]4CCN(Cc5ccc(C#N)cc5)C[C@H]4F)cn3)CC2)cc1 (single isomer, unassigned) [Compound 7-106]",< 1000 nM,
"COc1ccc(C(=O)C2CCN(C(=O)c3ccc(C(=O)N[C@H]4CCN(Cc5ccc(C#N)cc5)C[C@@H]4F)cn3)CC2)cc1 (single isomer, unassigned) [Compound 7-107]",< 1000 nM,
"N#Cc1ccc(N2CCC(Oc3ccc(C(=O)NC4CCN(Cc5ccncc5)CC4)nc3)CC2)cc1 [Compound 1-1, 5-(1-(4-cyanophenyl)piperidin-4-yloxy)-N-(1-(pyridin-4-ylmethyl)piperidin-4-yl)picolinamide]",,100 to 500 nM
"N#Cc1ccc(CN2CCC(NC(=O)c3ccc(OC4CCN(c5ccc(C#N)cc5)CC4)cn3)CC2)cc1 [Compound 1-2, N-(1-(4-cyanobenzyl)piperidin-4-yl)-5-(1-(4-cyanophenyl)piperidin-4-yloxy) picolinamide]",,< 100 nM
"O=C(NC1CCN(Cc2ccncc2)CC1)c1ccc(OC2CCN(c3ccc(C(F)(F)F)cc3)CC2)cn1 [Compound 1-3, N-(1-(pyridin-4-ylmethyl)piperidin-4-yl)-5-(1-(4-(trifluoromethyl)phenyl)piperidin-4-yloxy)picolinamide]",,< 100 nM
"N#Cc1ccc(CN2CCC(NC(=O)c3ccc(OC4CCN(c5ccc(C(F)(F)F)cc5)CC4)cn3)CC2)cc1 [Compound 1-4, N-(1-(4-cyanobenzyl)piperidin-4-yl)-5-(1-(4-(trifluoromethyl)phenyl)piperidin-4-yloxy) picolinamide]",,< 100 nM
"O=C(NC1CCN(Cc2cccnc2)CC1)c1ccc(OC2CCN(c3ccc(C(F)(F)F)cc3)CC2)cn1 [Compound 1-5, N-(1-(pyridin-3-ylmethyl)piperidin-4-yl)-5-(1-(4-(trifluoromethyl)phenyl)piperidin-4-yloxy) picolinamide]",,< 100 nM
"N#Cc1ccc(N2CCC(Oc3ccc(C(=O)NC4CCN(Cc5cccnc5)CC4)nc3)CC2)cc1 [Compound 1-6, N-(1-(pyridin-3-ylmethyl)piperidin-4-yl)-5-(1-(4-cyanophenyl)piperidin-4-yloxy)picolinamide]",,100 to 500 nM
"COC(=O)c1ccc(CN2CCC(NC(=O)c3ccc(OC4CCN(c5ccc(C#N)cc5)CC4)cn3)CC2)cc1 [Compound 1-7, methyl 4-((4-(5-(1-(4-cyanophenyl)piperidin-4-yloxy)picolinamido)piperidin-1-yl)methyl)benzoate]",,< 100 nM
"COC(=O)c1ccc(CN2CCC(NC(=O)c3ccc(OC4CCN(c5ccc(C(F)(F)F)cc5)CC4)cn3)CC2)cc1 [Compound 1-8, methyl 4-((4-(5-(1-(4-(trifluoromethyl)phenyl)piperidin-4-yloxy)picolinamido)piperidin-1-yl)methyl)benzoate]",,< 100 nM
"CC(C)(C)OC(=O)N1CCC(NC(=O)c2ccc(OC3CCN(c4ccc(C(F)(F)F)cc4)CC3)nc2)CC1 [Compound 1-9, tert-butyl 4-(6-(1-(4-(trifluoromethyl)phenyl)piperidin-4-yloxy)nicotinamido) piperidine-1-carboxylate]",,100 to 500 nM
"O=C(NC1CCN(Cc2ccncc2)CC1)c1ccc(OC2CCN(c3ccc(C(F)(F)F)cc3)CC2)nc1 [Compound 1-10, N-(1-(pyridin-4-ylmethyl)piperidin-4-yl)-6-(1-(4-(trifluoromethyl)phenyl)piperidin-4-yloxy)nicotinamide]",,< 100 nM
"O=C(NC1CCN(Cc2ccc(F)cc2)CC1)c1ccc(OC2CCN(c3ccc(C(F)(F)F)cc3)CC2)nc1 [Compound 1-11, N-(1-(4-fluorobenzyl)piperidin-4-yl)-6-(1-(4-(trifluoromethyl)phenyl)piperidin-4-yloxy)nicotinamide]",,< 100 nM
"CC(C)(C)OC(=O)N1CCC(NC(=O)c2cc(OC3CCN(c4ccc(C(F)(F)F)cc4)CC3)ccn2)CC1 [Compound 1-12, tert-butyl 4-(4-(1-(4-(trifluoromethyl)phenyl)piperidin-4-yloxy)picolinamido) piperidine-1-carboxylate]",,500 to 1000 nM
"O=C(NC1CCN(Cc2ccncc2)CC1)c1cc(OC2CCN(c3ccc(C(F)(F)F)cc3)CC2)ccn1 [Compound 1-13, N-(1-(pyridin-4-ylmethyl)piperidin-4-yl)-4-(1-(4-(trifluoromethyl)phenyl)piperidin-4-yloxy)picolinamide]",,100 to 500 nM
"O=C(NC1CCN(Cc2ccncc2)CC1)c1cncc(OC2CCN(c3ccc(C(F)(F)F)cc3)CC2)c1 [Compound 1-14, N-(1-(pyridin-4-ylmethyl)piperidin-4-yl)-5-(1-(4-(trifluoromethyl)phenyl)piperidin-4-yloxy)nicotinamide]",,< 100 nM
"CC(C)(C)OC(=O)N1CCC(NC(=O)c2ccnc(OC3CCN(c4ccc(C(F)(F)F)cc4)CC3)c2)CC1 [Compound 1-15, tert-butyl 4-(2-(1-(4-(trifluoromethyl)phenyl)piperidin-4-yloxy)isonicotinamido) piperidine-1-carboxylate]",,1000 to 5000 nM
"O=C(NC1CCN(Cc2ccc(F)cc2)CC1)c1cncc(OC2CCN(c3ccc(C(F)(F)F)cc3)CC2)c1 [Compound 1-16, N-(1-(4-fluorobenzyl)piperidin-4-yl)-5-(1-(4-(trifluoromethyl)phenyl)piperidin-4-yloxy)nicotinamide]",,< 100 nM
"N#Cc1ccc(CN2CCC(NC(=O)c3cncc(OC4CCN(c5ccc(C(F)(F)F)cc5)CC4)c3)CC2)cc1 [Compound 1-17, N-(1-(4-cyanobenzyl)piperidin-4-yl)-5-(1-(4-(trifluoromethyl)phenyl)piperidin-4-yloxy)nicotinamide]",,< 100 nM
"O=C(NC1CCN(Cc2cccnc2)CC1)c1cncc(OC2CCN(c3ccc(C(F)(F)F)cc3)CC2)c1 [Compound 1-18, N-(1-(pyridin-3-ylmethyl)piperidin-4-yl)-5-(1-(4-(trifluoromethyl)phenyl)piperidin-4-yloxy)nicotinamide]",,< 100 nM
"O=C(NC1CCNCC1)c1ccnc(OC2CCN(c3ccc(C(F)(F)F)cc3)CC2)c1 [Compound 1-19, N-(piperidin-4-yl)-2-(1-(4-(trifluoromethyl)phenyl)piperidin-4-yloxy) isonicotinamide]",,1000 to 5000 nM
"O=C(NC1CCN(Cc2ccncc2)CC1)c1ccnc(OC2CCN(c3ccc(C(F)(F)F)cc3)CC2)c1 [Compound 1-20, N-(1-(pyridin-4-ylmethyl)piperidin-4-yl)-2-(1-(4-(trifluoromethyl)phenyl)piperidin-4-yloxy) isonicotinamide]",,500 to 1000 nM
